Assay results taken from patent US20130018033A1, “RAF INHIBITOR COMPOUNDS AND METHODS OF USE THEREOF” (ARRAY BIOPHARMA INC., priority 2009, published 2013).
Like-named read-outs stand apart in the source and are kept apart here.

Columns and labels:
[1] = molecular target: T1, V600E full-length B-Raf (Homo sapiens, UniProt P15056, V600E); assay: B-Raf IC50 assay (Example A); type: biochemical
T1 construct: 1 μM FSBA-MEK and 20 nM V600E full-length B-Raf; made in house; host or cells: Sf9 insect cells (baculovirus)
T1 sequence (P15056 whole entry V600E): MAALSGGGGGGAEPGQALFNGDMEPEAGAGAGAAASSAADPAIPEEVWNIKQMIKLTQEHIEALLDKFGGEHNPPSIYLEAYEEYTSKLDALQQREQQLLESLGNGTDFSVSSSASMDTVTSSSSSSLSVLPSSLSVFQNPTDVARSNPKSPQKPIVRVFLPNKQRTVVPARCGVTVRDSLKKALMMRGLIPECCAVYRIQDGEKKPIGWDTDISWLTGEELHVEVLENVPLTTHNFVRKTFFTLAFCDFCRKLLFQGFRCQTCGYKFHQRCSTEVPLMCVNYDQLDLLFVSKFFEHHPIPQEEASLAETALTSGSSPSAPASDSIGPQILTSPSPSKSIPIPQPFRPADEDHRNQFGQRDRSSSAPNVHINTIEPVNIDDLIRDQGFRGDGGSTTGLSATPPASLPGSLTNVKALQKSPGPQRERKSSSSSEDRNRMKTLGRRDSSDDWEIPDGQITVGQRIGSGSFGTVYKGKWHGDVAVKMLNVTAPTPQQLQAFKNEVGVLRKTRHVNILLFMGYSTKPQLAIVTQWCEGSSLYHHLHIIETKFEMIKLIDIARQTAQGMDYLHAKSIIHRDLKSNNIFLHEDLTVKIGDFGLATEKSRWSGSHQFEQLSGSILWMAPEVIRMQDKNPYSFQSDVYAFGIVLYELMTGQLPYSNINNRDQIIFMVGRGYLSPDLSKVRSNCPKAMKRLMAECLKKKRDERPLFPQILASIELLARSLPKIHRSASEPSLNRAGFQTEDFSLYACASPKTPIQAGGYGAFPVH
Source text: Determining the activity of Raf in the sample is possible by a number of direct and indirect detection methods (US 2004/0082014). Activity of human recombinant B-Raf protein may be assessed in vitro by assay of the incorporation of radio labeled phosphate to recombinant MAP kinase (MEK), a known physiologic substrate of B-Raf, according to US 2004/0127496 and WO 03/022840. The activity/inhibition of V600E full-length B-Raf was estimated by measuring the incorporation of radio labeled phosphate from [γ-^33P]ATP into FSBA-modified wild-type MEK (see Example A).
Activity of human recombinant B-Raf protein may be assessed in vitro by assay of the incorporation of radio labeled phosphate to recombinant MAP kinase (MEK), a known physiologic substrate of B-Raf, according to US 2004/0127496 and WO 03/022840. Catalytically active human recombinant B-Raf protein is obtained by purification from sf9 insect cells infected with a human B-Raf recombinant baculovirus expression vector.
The activity/inhibition of V600E full-length B-Raf was estimated by measuring the incorporation of radio labeled phosphate from [γ-^33P]ATP into FSBA-modified wild-type MEK. The 30-μL assay mixtures contained 25 mM Na Pipes, pH 7.2, 100 mM KCl, 10 mM MgCl2, 5 mM β-glycerophosphate, […], 4 μM ATP, 500 nCi [γ-^33P]ATP, 1 μM FSBA-MEK and 20 nM V600E full-length B-Raf. Incubations were carried out at 22° C. in a Costar 3365 plate (Corning). Prior to the assay, the B-Raf and FSBA-MEK were preincubated together in assay buffer at 1.5×(20 μL of 30 nM and 1.5 μM, respectively) for 15 minutes, and the assay was initiated by the addition of 10 μL of 10 μM ATP. Following the 60-minute incubation, the assay mixtures were quenched by the addition of 100 μL of 25% TCA, the plate was mixed on a rotary shaker for 1 minute, and the product was captured on a Perkin-Elmer GF/B filter plate using a Tomtec Mach III Harvester. After sealing the bottom of the plate, 35 μL of Bio-Safe II (Research Products International) scintillation cocktail were added to each well and the plate was top-sealed and counted in a Topcount NXT (Packard).

[2] = test system: basal ERK1/2 phosphorylation in Malme-3M cells; assay: Cellular ERK 1/2 phosphorylation assay (Example A1); type: cell-based; details: Homo sapiens, 1 hour incubation, pERK normalized to total ERK, read-out: P-ERK Malme3-M IC50
Experimental: Inhibition of basal ERK1/2 phosphorylation was determined by the following in vitro […], which comprises incubating cells with a compound of Formula I for 1 hour and quantifying the fluorescent pERK signal on fixed cells and normalizing to total ERK signal.
Malme-3M cells were obtained from ATCC and grown in RPMI-1640 supplemented with 10% fetal bovine serum. Cells were plated in 96-well plates at 24,000 cells/well and allowed to attach for 16-20 hours at 37° C., 5% CO2. The media was removed, and DMSO-diluted compounds were added in RPMI-1640 at a final concentration of 1% DMSO. The cells were incubated with the compounds for 1 hour at 37° C., 5% CO2. The cells were washed with PBS and fixed in 3.7% formaldehyde in PBS for 15 minutes. This was followed by washing in PBS/0.05% Tween20 and permeabilizing in −20° C. 100% MeOH for 15 minutes. Cells were washed in PBS/0.05% Tween20 then blocked in Odyssey blocking buffer (LI-COR Biosciences) for 1 hour. Antibodies to phosphorylated ERK (1:400, Cell Signaling #9106, monoclonal) and total ERK (1:400, Santa Cruz Biotechnology #sc-94, polyclonal) were added to the cells and incubated 16-20 hours at 4° C. After washing with PBS/0.05% Tween20, the cells were incubated with fluorescently-labeled secondary antibodies (1:1000 goat anti-rabbit IgG-IRDye800, Rockland and 1:500 goat anti-mouse IgG-Alexa Fluor 680, Molecular Probes) for an additional hour. Cells were then washed and analyzed for fluorescence at both wavelengths using the Odyssey Infrared Imaging System (LI-COR Biosciences). Phosphorylated ERK signal was normalized to total ERK signal.

[3] = B-Raf V600E assay of Example A, read-out: IC50
[4] = [γ-33P]ATP incorporation into FSBA-MEK, 4 μM ATP, read-out: BRAF V600E IC50

| Structure (SMILES) | IC50 [1, 3] [nM] | IC50 [1, 4] [nM] | IC50 [2] [nM] | IC50 ([1]; BRAF V600E IC50 (μM), [γ-33P]ATP incorporation into FSBA-MEK, 4 μM ATP) [nM] |
| --- | --- | --- | --- | --- |
| CC(C)CS(=O)(=O)Nc1ccc(F)c(NC(=O)c2cccc3c(N)ncnc23)c1F [Example 12, 4-Amino-quinazoline-8-carboxylic acid [2,6-difluoro-3-(2-methyl-propane-1-sulfonylamino)-phenyl]-amide] | < 100 | 1.55 | 8.54 | – |
| CCCS(=O)(=O)Nc1ccc(Cl)c(NC(=O)c2cccc3c(N)ncnc23)c1C#N [Example 29, 4-Amino-quinazoline-8-carboxylic acid [6-chloro-2-cyano-3-(propane-1-sulfonylamino)-phenyl]-amide] | < 100 | 0.08 | 25.3 | – |
| Nc1ncnc2c(C(=O)Nc3c(Cl)ccc(NS(=O)(=O)CCCF)c3Cl)cccc12 [Example 27, 4-Amino-quinazoline-8-carboxylic acid [2,6-dichloro-3-(3-fluoro-propane-1-sulfonylamino)-phenyl]-amide] | < 100 | 0.08 | 4.07 | – |
| CCCS(=O)(=O)Nc1ccc(F)c(NC(=O)c2cc(C)cc3c(N)ncnc23)c1Cl [Example 77, 4-Amino-6-methyl-quinazoline-8-carboxylic acid [2-chloro-6-fluoro-3-(propane-1-sulfonylamino)-phenyl]-amide] | < 100 | 0.45 | 7.83 | – |
| CCCS(=O)(=O)Nc1ccc(F)c(NC(=O)c2ccnc3c(N)ncnc23)c1F [Example 64, 4-Amino-pyrido[3,2-d]pyrimidine-8-carboxylic acid [2,6-difluoro-3-(propane-1-sulfonylamino)-phenyl]-amide] | < 100 | 3.11 | 9.7 | – |
| CCCS(=O)(=O)Nc1ccc(F)c(NC(=O)c2cc(C)cc3c(NC4CCOCC4)ncnc23)c1F [Example 74, 6-Methyl-4-(tetrahydro-pyran-4-ylamino)-quinazoline-8-carboxylic acid [2,6-difluoro-3-(propane-1-sulfonylamino)-phenyl]-amide] | – | > 1000 | – | – |
| CCS(=O)(=O)Nc1ccc(F)c(NC(=O)c2cccc3c(N)ncnc23)c1Cl [Example 20, 4-Amino-quinazoline-8-carboxylic acid (2-chloro-3-ethanesulfonyl-amino-6-fluoro-phenyl)-amide] | < 100 | 2.24 | 32.4 | – |
| CCCS(=O)(=O)Nc1cccc(NC(=O)c2cccc3c(N)ncnc23)c1Cl [Example 5, 4-Amino-quinazoline-8-carboxylic acid [2-chloro-3-(propane-1-sulfonylamino)-phenyl]-amide] | < 100 | 4.77 | 40.7 | – |
| CCCS(=O)(=O)Nc1ccc(F)c(NC(=O)c2cccc3c(N)ncnc23)c1F [Example 1, 4-Amino-quinazoline-8-carboxylic acid [2,6-difluoro-3-(propane-1-sulfonylamino)-phenyl]-amide] | < 100 | – | 8.67 | 1.77 |
| CCCS(=O)(=O)Nc1cc(F)c(F)c(NC(=O)c2cccc3c(NC4CCCCC4)ncnc23)c1F [Example 41, 4-Cyclohexylamino-quinazoline-8-carboxylic acid [2,3,6-trifluoro-5-(propane-1-sulfonylamino)-phenyl]-amide] | – | > 1000 | – | – |
| CCCS(=O)(=O)Nc1ccc(F)c(NC(=O)c2cc(C)cc3c(NC4CCCC4)ncnc23)c1F [Example 71, 4-Cyclopentylamino-6-methyl-quinazoline-8-carboxylic acid [2,6-difluoro-3-(propane-1-sulfonylamino)-phenyl]-amide] | – | > 1000 | – | – |
| CCCS(=O)(=O)Nc1cc(F)c(F)c(NC(=O)c2cccc3c(NC4CC4)ncnc23)c1F [Example 45, 4-Cyclopropylamino-quinazoline-8-carboxylic acid [2,3,6-trifluoro-5-(propane-1-sulfonylamino)-phenyl]-amide] | < 1000 | 545 | – | – |
| CCCS(=O)(=O)Nc1cc(F)c(F)c(NC(=O)c2cccc3c(NC4CCOCC4)ncnc23)c1F [Example 42, 4-(Tetrahydropyran-4-ylamino)-quinazoline-8-carboxylic acid [2,3,6-trifluoro-5-(propane-1-sulfonylamino)-phenyl]-amide] | – | > 1000 | – | – |
| CCCS(=O)(=O)Nc1ccc(F)c(NC(=O)c2cc(C)cc3c(NC4CCC(F)(F)CC4)ncnc23)c1F [Example 76, 4-(4,4-Difluoro-cyclohexylamino)-6-methyl-quinazoline-8-carboxylic acid [2,6-difluoro-3-(propane-1-sulfonylamino)-phenyl]-amide] | – | > 1000 | – | – |
| CCCS(=O)(=O)Nc1cc(F)c(F)c(NC(=O)c2cccc3c(NC4CCNCC4)ncnc23)c1F [Example 44, 4-(Piperidin-4-ylamino)-quinazoline-8-carboxylic acid [2,3,6-trifluoro-5-(propane-1-sulfonylamino)-phenyl]-amide] | – | > 1000 | – | – |
| CCCS(=O)(=O)Nc1cc(F)c(F)c(NC(=O)c2cccc3c(Nc4ccn(C)n4)ncnc23)c1F [Example 48, 4-(1-Methyl-1H-pyrazol-3-ylamino)-N-(2,3,6-trifluoro-5-(propylsulfonamido)phenyl)quinazoline-8-carboxamide] | – | > 1000 | – | – |
| CCCS(=O)(=O)Nc1cc(F)c(F)c(NC(=O)c2cccc3c(NC4CCC(F)(F)CC4)ncnc23)c1F [Example 46, 4-(4,4-Difluoro-cyclohexylamino)-quinazoline-8-carboxylic acid [2,3,6-trifluoro-5-(propane-1-sulfonylamino)-phenyl]-amide] | – | > 1000 | – | – |
| O=C(Nc1c(F)ccc(NS(=O)(=O)CC2CC2)c1F)c1cccc2c(NC3CC3)ncnc12 [Example 53, 4-Cyclopropylamino-quinazoline-8-carboxylic acid (3-cyclopropylmethanesulfonylamino-2,6-difluoro-phenyl)-amide] | < 1000 | 976 | – | – |
| CCCS(=O)(=O)Nc1cc(F)c(F)c(NC(=O)c2cccc3c(NCC)ncnc23)c1F [Example 49, 4-Ethylamino-quinazoline-8-carboxylic acid [2,3,6-trifluoro-5-(propane-1-sulfonylamino)-phenyl]-amide] | < 1000 | 737 | – | – |
| CCCS(=O)(=O)Nc1ccc(F)c(NC(=O)c2cc(C)cc3c(NC4CC4)ncnc23)c1F [Example 73, 4-Cyclopropylamino-6-methyl-quinazoline-8-carboxylic acid [2,6-difluoro-3-(propane-1-sulfonylamino)-phenyl]-amide] | < 1000 | 879 | – | – |
| CCCS(=O)(=O)Nc1cc(F)c(F)c(NC(=O)c2cccc3c(NC)ncnc23)c1F [Example 50, 4-Methylamino-quinazoline-8-carboxylic acid [2,3,6-trifluoro-5-(propane-1-sulfonylamino)-phenyl]-amide] | – | > 1000 | – | – |
| CCCS(=O)(=O)Nc1ccc(F)c(NC(=O)c2cc(C)cc3c(NC4CCC4)ncnc23)c1F [Example 75, 4-Cyclobutylamino-6-methyl-quinazoline-8-carboxylic acid [2,6-difluoro-3-(propane-1-sulfonylamino)-phenyl]-amide] | – | > 1000 | – | – |
